Data taken from patent US6395541B1, “Methods for the identification of compounds capable of inhibiting HIV-1 viral replication employing murine cell lines expressing human topoisomerase I” (The Rockefeller University, priority 1996, dated 2002).

Assays:
topo I [1] = target: T1, topo I (Homo sapiens, UniProt P11387); test: Reverse transcriptase assay, ssDNA synthesis and strand transfer in presence of topo I; type: biochemical; conditions: topo I 0.16 unit per 50 μl; CPT 400, 40 and 4 μM; concentration-dependent
T1 sequence (P11387 1-765): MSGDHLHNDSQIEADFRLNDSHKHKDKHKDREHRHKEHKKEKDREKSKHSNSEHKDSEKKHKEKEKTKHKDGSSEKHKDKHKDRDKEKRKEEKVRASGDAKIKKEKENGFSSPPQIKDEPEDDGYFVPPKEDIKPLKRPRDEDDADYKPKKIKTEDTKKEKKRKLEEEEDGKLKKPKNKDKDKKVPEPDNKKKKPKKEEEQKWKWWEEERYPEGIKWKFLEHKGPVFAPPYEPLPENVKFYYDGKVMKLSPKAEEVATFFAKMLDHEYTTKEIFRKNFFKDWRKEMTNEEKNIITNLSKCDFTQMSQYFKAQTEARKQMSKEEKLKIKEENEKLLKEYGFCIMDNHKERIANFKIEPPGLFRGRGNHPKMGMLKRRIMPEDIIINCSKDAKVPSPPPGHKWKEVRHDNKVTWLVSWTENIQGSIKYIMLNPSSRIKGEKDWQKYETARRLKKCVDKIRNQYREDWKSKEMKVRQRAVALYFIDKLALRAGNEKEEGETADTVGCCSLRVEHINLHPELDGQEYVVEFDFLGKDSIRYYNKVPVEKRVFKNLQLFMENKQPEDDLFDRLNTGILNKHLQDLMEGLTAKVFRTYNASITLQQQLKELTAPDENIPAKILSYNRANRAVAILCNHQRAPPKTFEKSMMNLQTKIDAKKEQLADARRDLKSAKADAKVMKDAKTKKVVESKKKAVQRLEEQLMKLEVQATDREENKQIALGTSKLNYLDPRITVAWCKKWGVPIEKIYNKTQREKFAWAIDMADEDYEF
Excerpt: Analysis of ssDNA synthesis and strand transfer. […] Schematic representation of two RNA templates employed. […] The 3′RNA represents the 3′end of the HIV-1 RNA and contains the R region and the poly(A) tail. ssDNA synthesis was initiated by an end labeled primer (*) corresponding to the primer binding site (PBS) in the 5′RNA. After strand transfer to the 3′RNA, this would be expected to result in a cDNA product of 867 nucleotides. […] Phosphorescence image analysis of the cDNA product after agarose gel electrophoresis. The presence and absence of 5′RNA and 3′RNA templates are indicated by + and −, respectively. The effects of CPT at concentrations of 400, 40 and 4 μM are indicated by +. Topo I was used at the final concentration of 0.16 unit per 50 μl in all experiments.
Reaction mixtures obtained 300 ng of RNA template in 50 μl of 50 Mm TrisHCL (pH 8.0) containing 150 Mm KCl, 5 Mm MgCl^2, 5 Mm dithiothreitol, 0.5 Mm EGTA, 0.4 unit of RNasin (Promega), 0.1 unit of HIV-1 RT (Seikagaku, Kogyo, Tokyo), 100 ng of primer, 250 μM dNTPs, bovine serum albumin at 0.1 mg/ml, GST-P15 at 0.8 μg/ml 10 μl of glutathione beads (50% vol/vol; Pharmacia), and topo I at final concentrations of 0.16, 0.032 and 0.0064 unit. Samples were incubated at 37° C. for 25 min. […] Gels were dried onto nylon membranes and analyzed with a Fuji BAS2000 phosphorescence imager. […] Reaction products were analyzed as above.

topo I [2] = target: T1, topo I; test: Reverse transcriptase assay, linear cDNA synthesis from 5'/3' HIV-1 RNA template in presence of topo I; type: biochemical; conditions: HIV-1 RT with topo I 0.16 unit; CPT 400, 40, 4 and 0 μM; concentration dependent
Excerpt: Influence of cellular topo I on HIV-1 RT activity. […] An end-labeled primer (*) was employed to initiate cDNA synthesis and would be expected to result in a product of 1481 nucleotides (nt). […] Phosphorescence image analysis of cDNA products following agarose gel electrophoresis. The presence or absence of topo I is indicated by + and −, respectively. Similarly the presence or absence of CPT is indicated by + and −.
To analyze the influence of topo I on linear cDNA synthesis, the template containing both the 5′ and 3′ ends of HIV-1 RNA was used. cDNA synthesis expected to result in a product of 1481 nucleotides was initiated using a nef gene primer end-labeled with [θ-^32P]ATP (5′-[sequence]-3′; nucleotides 9002-9027). Reaction mixtures obtained 300 ng of RNA template in 50 μl of 50 Mm TrisHCL (pH 8.0) containing 150 Mm KCl, 5 Mm MgCl^2, 5 Mm dithiothreitol, 0.5 Mm EGTA, 0.4 unit of RNasin (Promega), 0.1 unit of HIV-1 RT (Seikagaku, Kogyo, Tokyo), 100 ng of primer, 250 μM dNTPs, bovine serum albumin at 0.1 mg/ml, GST-P15 at 0.8 μg/ml 10 μl of glutathione beads (50% vol/vol; Pharmacia), and topo I at final concentrations of 0.16, 0.032 and 0.0064 unit. Samples were incubated at 37° C. for 25 min. […] Gels were dried onto nylon membranes and analyzed with a Fuji BAS2000 phosphorescence imager.

HIV-1 IIIB strain = test: Southern hybridization of DNA from HIV-1 infected MT2 cells with drug treatment; type: cell-based; conditions: HIV-1 IIIB 0.1 m.o.i., 72 hrs, drugs 0.01-10 μg/ml
Procedure: FIG. 5. Southern hybridization of DNA from HIV-1 infected cells with drug treatment. […] cells, MT2, infected with the HIV-1 IIIB strain were treated with AZT, CPT or TAN at concentrations (from right to left) AZT 0.01, 0.1, 1.0, 10 μg/ml, CPT 0.01, 0.1, 1.0 μg/ml, TAN 0.01, 0.1, 1.0 μg/ml respectively.
MT2 cells were incubated for 2 hours with HIV-1 IIIB strain (Ratner et al., 1985 Nature 313: 277-284) at 0.1 m.o.i. with drugs. Concentrations ranged from no drugs 0,0, AZT 0.01, 0.1, 1, 10 μg/mi, CPT 0.01, 0. 1, 1 μg/ml TAN 0.01, 0. 1, 1 μg/ml, CPT 0.1, 1, 10 μg/ml, TAN 0.1, 1, 10 μg/mi respectively (FIG. 5). After washing with PBS 3 times, cells were incubated again for 72 hrs with or without concentration of drugs as indicated, then lysed with 1% SDS, 10 Mm Tris HCl (pH 8.0), 5 Mm EDTA, 1M NaCl(Hirt's method. Following overnight incubation at 4 C., large molecule of DNA were precipitated by centrifugation. Supernatants were treated with 100 μg/ml of protease K at 56° C. for 2 hrs and after treated with phenol-chloroform, small molecules of DNA were precipitated and subjected to southern hybridization. Transferred nylon membrane (Schleicher & Schuell) were probed with (α-^32P) dCTP-random-primed-labeled primer.

HIV-1 [3] = conditions: cited from earlier work
HIV-1 [4] = conditions: AIDS patients; cited from earlier work

Structure (SMILES) | cDNA product of 867 nucleotides (ssDNA synthesis and strand transfer) (topo I [1]) | cDNA synthesis (1481 nucleotide product) (topo I [2]) | HIV-replication in HIV-infected cells, Southern blot analysis (HIV-1 IIIB strain) | antiviral activity in vitro (HIV-1 [3]) | CD4 lymphocyte counts (HIV-1 [4]) | plasma HIV-1 levels (HIV-1 [4])
CC[C@@]1(O)C(=O)OCc2c1cc1n(c2=O)Cc2cc3ccccc3nc2-1 [CPT, camptothecin] | inhibited | inhibited | reduced HIV-replication |  |  | 
CC(C)c1nc(CN(C)C(=O)N[C@H](C(=O)N[C@@H](Cc2ccccc2)C[C@H](O)[C@H](Cc2ccccc2)NC(=O)OCc2cncs2)C(C)C)cs1 [ABT-538] |  |  |  | potent antiviral activity | rise substantially | decrease exponentially
